Target: T1, Human recombinant LOXL2 (Homo sapiens, UniProt Q9Y4K0)
T1 sequence (Q9Y4K0 26-774): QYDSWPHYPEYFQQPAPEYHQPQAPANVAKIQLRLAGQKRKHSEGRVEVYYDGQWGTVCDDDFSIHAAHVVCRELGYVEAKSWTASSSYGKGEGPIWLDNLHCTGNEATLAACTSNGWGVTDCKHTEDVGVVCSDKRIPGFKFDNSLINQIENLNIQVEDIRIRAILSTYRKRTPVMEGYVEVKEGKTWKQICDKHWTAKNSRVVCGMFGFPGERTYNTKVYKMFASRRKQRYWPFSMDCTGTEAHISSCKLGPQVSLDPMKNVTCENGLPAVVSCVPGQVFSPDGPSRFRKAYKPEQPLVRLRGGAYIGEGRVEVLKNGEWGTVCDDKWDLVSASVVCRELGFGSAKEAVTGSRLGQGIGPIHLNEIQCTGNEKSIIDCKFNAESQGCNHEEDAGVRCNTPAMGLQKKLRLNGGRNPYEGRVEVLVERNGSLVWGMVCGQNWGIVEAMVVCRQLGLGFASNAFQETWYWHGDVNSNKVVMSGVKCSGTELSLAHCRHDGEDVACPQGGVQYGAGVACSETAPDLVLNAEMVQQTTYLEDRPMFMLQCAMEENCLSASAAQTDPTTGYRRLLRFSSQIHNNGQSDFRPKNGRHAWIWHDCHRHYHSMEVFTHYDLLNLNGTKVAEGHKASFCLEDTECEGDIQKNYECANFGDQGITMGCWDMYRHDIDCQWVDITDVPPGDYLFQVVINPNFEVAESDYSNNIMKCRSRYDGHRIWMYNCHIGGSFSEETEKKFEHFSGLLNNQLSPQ
Test: LOXL2 inhibition, Amplex Red oxidation assay
Format: biochemical
Conditions: not given
Experimental: LOX and LOXL protein family members can be acquired as recombinant active proteins from commercial sources, or extracted from animal tissues like bovine aorta, tendons, pig skin; or prepared from cell cultures. […] The assay was developed using either 384 or 96 well format. Briefly, in a standard black, clear bottom 384 well plate assay 25 μL of a dilution of any of the isoenzymes and orthologues in 1.2 M urea, 50 mM sodium borate buffer (pH 8.2) were added into each well in the presence of 1 μM mofegiline and 0.5 mM pargyline (to inhibit SSAO and MAO-B and MAO-A, respectively; not necessary if the enzyme is from a recombinant or purified form). Test compounds were dissolved in DMSO and tested in a Concentration Response Curve (CRC) with 11 data points, typically in the micromolar or nanomolar range after incubation with the enzyme for 30 min at 37° C. 25 μL of a reaction mixture containing twice the KM concentration of putrescine (Sigma Aldrich, e.g. 20 mM for LOX and LOXL1 or 10 mM for LOXL2 and 4 mM for LOXL3 and LOXL4), 120 μM Amplex Red (Sigma Aldrich) and 1.5 U/mL horseradish peroxidase (Sigma Aldrich) prepared in 1.2 M urea, 50 mM sodium borate buffer (pH 8.2) were then added to the corresponding wells. The above volumes were doubled in the case of 96 wells plate. The fluorescence (RFU) was read every 2.5 min for 30 min at […] 37° C., excitation 565 nm and emission 590 (Optima; BMG labtech). The slope of the kinetics for each well was calculated using MARS data analysis software (BMG labtech) and this value was used to deduce the IC50 value (Dotmatics). The ability of the inventive compounds to inhibit the amine oxidase activity of LOX and other family members is shown in Table 4.

`NC/C=C(\F)C(F)(F)S(=O)(=O)c1ccccc1` [Compound 1, (Z)-3,4,4-trifluoro-4-(phenylsulfonyl)but-2-en-1-amine] was tested, and the IC50 was 400 nM.

Same assay, conditions: incubation with enzyme 30 min at 37° C; read-out: Human recombinant LOXL2 Activity IC50

Compared with `N#CCCN` [BAPN, β-aminopropionitrile, reference compound], `CNc1ccccc1S(=O)(=O)C(F)(F)/C(F)=C/CN` [Compound 4, (Z)-2-((4-amino-1,1,2-trifluorobut-2-en-yl)sulfony1)-N-methylaniline] is 2.5-fold higher in IC50: 400 nM for the first, 1000 nM for the second. The first is the more potent here.

Going from `NC/C=C(\F)C(F)(F)S(=O)(=O)c1cccc2cccnc12` [Compound 2, (Z)-3,4,4-trifluoro-4-(quinolin-8-ylsulfonyl)but-2-en-1-amine] to `Cc1ccccc1S(=O)(=O)C(F)(F)/C(F)=C/CN` [Compound 5, (Z)-3,4,4-trifluoro-4-(o-tolylsulfonyl)but-2-en-1-amine], the IC50 falls from 1800 nM to 500 nM (3.6-fold). The second is the more potent here.

`Cc1ccc(S(=O)(=O)C(F)(F)/C(F)=C/CN)cc1` [Compound 6, (Z)-3,4,4-trifluoro-4-tosylbut-2-en-1-amine] and `COc1cccc(S(=O)(=O)C(F)(F)/C(F)=C/CN)c1` [Compound 12, (Z)-3,4,4-trifluoro-4-((3-methoxyphenyl)sulfonyl)but-2-en-1-amine] are within 1.5-fold of each other in IC50: 500 nM for the first, 600 nM for the second.

`NC/C=C(\F)C(F)(F)S(=O)(=O)Cc1ccccc1` [Compound 8, (Z)-4-(benzylsulfony1)-3,4,4-trifluorobut-2-en-1-amine] and `CS(=O)(=O)c1cccc(CS(=O)(=O)C(F)(F)/C(F)=C/CN)c1` [Compound 17, (Z)-3,4,4-trifluoro-4-((3-(methylsulfonyl)benzyl)sulfonyl)but-2-en-1-amine] are within 1.5-fold of each other in IC50: 300 nM for the first, 400 nM for the second.

First: NC/C=C(\F)C(F)(F)[S+]([O-])c1ccccc1 (stereo not shown) [Compound 9, (Z)-3,4,4-trifluoro-4-(phenylsulfinyl)but-2-en-1-amine]
Second: NC/C=C(\F)C(F)(F)S(=O)(=O)c1cccs1 [Compound 14, (Z)-3,4,4-trifluoro-4-(thiophen-2-ylsulfonyl)but-2-en-1-amine]
The IC50 of the first is 4.7-fold higher: 1400 nM for the first, 300 nM for the second. The second is the more potent here.

First: CS(=O)(=O)c1ccc(COc2ccccc2S(=O)(=O)C(F)(F)/C(F)=C/CN)cc1 [Compound 10, (Z)-3,4,4-trifluoro-4-((2-((4-(methylsulfonyl)benzyl)oxy)phenyl)sulfonyl) but-2-en-1-amine]
Second: NC/C=C(\F)C(F)(F)S(=O)(=O)C1CCCC1 [Compound 19, (Z)-4-(cyclopentylsulfony1)-3,4,4-trifluorobut-2-en-1-amine]
The IC50 of the first is 5-fold lower: 100 nM for the first, 500 nM for the second.

Source: US20220251036A1, “DIFLUOROHALOALLYLAMINE SULFONE DERIVATIVE INHIBITORS OF LYSYL OXIDASES, METHODS OF PREPARATION, AND USES THEREOF” (PHARMAXIS LTD., priority 2019, published 2022)
